Test results reported in ChEMBL document CHEMBL3124891, “Tetrahydroquinoline derivatives as potent and selective factor XIa inhibitors” (J Med Chem, 2014).
Calls of active or inactive are those of the source. The rule behind the calls is not given here.

Tests used:
[1] = target: T1, Coagulation factor XI (Homo sapiens, UniProt P03951); experiment: Binding affinity to human factor 11a assessed as release of p-nitroaniline after 10 to 120 mins by spectrophotometric analysis
[2] = target: Coagulation factor X (Homo sapiens, UniProt P00742); experiment: Binding affinity to human factor 10a assessed as release of p-nitroaniline after 10 to 120 mins by spectrophotometric analysis
[3] = target: T2, Coagulation factor VII (Homo sapiens, UniProt P08709); experiment: Binding affinity to human factor 7a assessed as release of p-nitroaniline after 10 to 120 mins by spectrophotometric analysis
T2 sequence (P08709 whole entry): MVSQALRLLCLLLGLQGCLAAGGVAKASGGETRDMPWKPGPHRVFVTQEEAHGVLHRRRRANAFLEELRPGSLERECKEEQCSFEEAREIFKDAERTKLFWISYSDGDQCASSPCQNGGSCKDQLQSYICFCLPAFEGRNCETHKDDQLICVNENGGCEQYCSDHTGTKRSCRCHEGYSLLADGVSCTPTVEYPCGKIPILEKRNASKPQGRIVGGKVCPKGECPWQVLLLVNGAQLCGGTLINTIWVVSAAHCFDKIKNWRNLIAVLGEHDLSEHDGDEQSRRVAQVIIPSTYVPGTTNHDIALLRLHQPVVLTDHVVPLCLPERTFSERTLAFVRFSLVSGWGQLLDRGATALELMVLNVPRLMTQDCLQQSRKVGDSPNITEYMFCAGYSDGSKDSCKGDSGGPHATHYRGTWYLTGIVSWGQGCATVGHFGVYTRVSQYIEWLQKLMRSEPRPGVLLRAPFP

[4] = species on record: Homo sapiens; experiment: Selectivity ratio of Ki for human factor 7a to Ki for human factor 11a
[5] = species on record: Homo sapiens; experiment: Selectivity ratio of Ki for human factor 10a to Ki for human factor 11a
[6] = system: Plasma; experiment: Anticoagulant activity in human plasma assessed as concentration required to double activated partial thromboplastin time; assay type: functional
[7] = target: T1, Coagulation factor XI; experiment: Competitive inhibition of human factor 11a assessed as release of p-nitroaniline after 10 to 120 mins by Michaelis-Menten equation analysis
[8] = system: Oryctolagus cuniculus; experiment: Antithrombotic activity in rabbit arteriovenous-shunt thrombosis model assessed as inhibition of clot formation compound administered as single bolus dose followed by five continuous infusion dose; assay type: functional
[9] = target: T1, Coagulation factor XI; experiment: Mixed-type inhibition of human factor 11a

T1 sequence (P03951 19-387 limits assumed): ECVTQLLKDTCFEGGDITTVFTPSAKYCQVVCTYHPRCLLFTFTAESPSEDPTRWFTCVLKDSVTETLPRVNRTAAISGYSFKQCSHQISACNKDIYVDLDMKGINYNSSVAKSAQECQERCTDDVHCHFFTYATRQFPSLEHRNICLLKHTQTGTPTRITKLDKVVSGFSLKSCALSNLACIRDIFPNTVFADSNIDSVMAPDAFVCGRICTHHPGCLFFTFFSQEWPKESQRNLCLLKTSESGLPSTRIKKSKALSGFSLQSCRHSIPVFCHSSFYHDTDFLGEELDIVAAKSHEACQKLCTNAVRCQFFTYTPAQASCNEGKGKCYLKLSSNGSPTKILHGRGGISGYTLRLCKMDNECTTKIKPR
T1 sequence (P03951 388-625 limits assumed): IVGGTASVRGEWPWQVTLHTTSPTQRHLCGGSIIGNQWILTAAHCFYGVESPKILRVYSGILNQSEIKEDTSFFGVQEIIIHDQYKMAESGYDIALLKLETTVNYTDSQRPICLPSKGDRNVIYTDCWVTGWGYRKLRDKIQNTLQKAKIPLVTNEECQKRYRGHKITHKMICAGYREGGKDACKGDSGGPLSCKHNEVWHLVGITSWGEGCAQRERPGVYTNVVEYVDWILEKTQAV
Coagulation factor X, sequence (P00742 41-179 limits assumed): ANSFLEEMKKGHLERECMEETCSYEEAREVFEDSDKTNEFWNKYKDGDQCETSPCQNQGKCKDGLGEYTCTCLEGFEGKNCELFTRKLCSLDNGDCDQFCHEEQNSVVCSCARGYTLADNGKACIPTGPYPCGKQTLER
Coagulation factor X, sequence (P00742 235-488 limits assumed): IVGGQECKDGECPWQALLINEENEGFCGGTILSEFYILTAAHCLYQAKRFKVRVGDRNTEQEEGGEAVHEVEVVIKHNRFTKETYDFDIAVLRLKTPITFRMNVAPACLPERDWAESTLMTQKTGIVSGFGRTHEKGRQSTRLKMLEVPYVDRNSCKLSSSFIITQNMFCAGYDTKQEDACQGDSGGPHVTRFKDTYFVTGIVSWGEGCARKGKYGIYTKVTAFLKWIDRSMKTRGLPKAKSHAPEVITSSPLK

Row | Structure (SMILES) | Ki [1] [nM] | Ki [2] [nM] | Ki [3] [nM] | Ratio Ki [4] | Ratio Ki [5] | inhibition [7] | inhibition [9] | EC [6] [µM] | inhibition [8]
1 | N=C(N)c1ccc2c(c1)[C@@H](c1ccccc1)C[C@@H](c1ccccc1-c1ccccc1C(=O)O)N2 (racemic) | 110 | 1940 | 2200 |  |  |  |  |  | 
2 | N=C(N)c1ccc2c(c1)[C@@H](c1ccccc1)C[C@@H](c1ccccc1-c1ccc(C(=O)O)cc1)N2 (racemic) | 2400 |  |  |  |  |  |  |  | 
3 | C[C@]1(c2ccccc2)C[C@@H](c2cccc(-c3ccc(C(=O)O)cc3C(=O)O)c2)Nc2ccc(C(=N)N)cc21 (racemic) | 61 | 9300 | 2600 |  |  |  |  |  | 
4 | CC[C@]1(c2ccccc2)C[C@@H](c2cccc(-c3ccc(C(=O)O)cc3C(=O)O)c2)Nc2ccc(C(=N)N)cc21 (racemic) | 830 |  |  |  |  |  |  |  | 
5 | CCC[C@]1(c2ccccc2)C[C@@H](c2cccc(-c3ccc(C(=O)O)cc3C(=O)O)c2)Nc2ccc(C(=N)N)cc21 (racemic) | 1960 |  |  |  |  |  |  |  | 
6 | C[C@]1(c2ccccc2)C[C@@H](c2cccc(-c3ccc(N)cc3C(=O)O)c2)Nc2ccc(C(=N)N)cc21 (racemic) | 64 | 3980 | 275 |  |  |  |  |  | 
7 | COC(=O)c1ccc(-c2cccc([C@@H]3C[C@](C)(c4ccccc4)c4cc(C(=N)N)ccc4N3)c2)c(C(=O)O)c1 (racemic) | 79 | 606 | 442 |  |  |  |  |  | 
8 | C[C@]1(c2ccccc2)C[C@@H](c2cccc(-c3ccccc3C(=O)O)c2)Nc2ccc(C(=N)N)cc21 (racemic) | 110 | 6700 | 3060 |  |  |  |  |  | 
9 | CC(=O)Nc1ccc(-c2cccc([C@@H]3C[C@](C)(c4ccccc4)c4cc(C(=N)N)ccc4N3)c2)c(C(=O)O)c1 (racemic) | 110 | 5810 | 705 |  |  |  |  |  | 
10 | CNC(=O)c1ccc(-c2cccc([C@@H]3C[C@](C)(c4ccccc4)c4cc(C(=N)N)ccc4N3)c2)c(C(=O)O)c1 (racemic) | 154 | 4100 | 1960 |  |  |  |  |  | 
11 | CC(C)NC(=O)c1ccc(-c2cccc([C@@H]3C[C@](C)(c4ccccc4)c4cc(C(=N)N)ccc4N3)c2)c(C(=O)O)c1 (racemic) | 207 | 1310 | 1770 |  |  |  |  |  | 
12 | CN(C)Cc1ccc(-c2cccc([C@@H]3C[C@](C)(c4ccccc4)c4cc(C(=N)N)ccc4N3)c2)c(C(=O)O)c1 (racemic) | 466 | > 15000 | 610 |  |  |  |  |  | 
13 | CC(C)(C)NC(=O)c1ccc(-c2cccc([C@@H]3C[C@](C)(c4ccccc4)c4cc(C(=N)N)ccc4N3)c2)c(C(=O)O)c1 (racemic) | 540 | 6400 | 1290 |  |  |  |  |  | 
14 | CC1(c2ccccc2)CC(c2cccc(-c3ccc(C(N)=O)cc3C(=O)O)c2)Nc2ccc(C(=N)N)cc21 (single isomer, unassigned; (+)) [listing 2 of 2 here] |  |  |  | 200 | > 1000 |  |  |  | 
15 | CC(C)CC(=O)Nc1cc(-c2ccc(C(N)=O)cc2C(=O)O)cc(C2CC(C)(c3ccccc3)c3cc(C(=N)N)ccc3N2)c1 (single isomer, unassigned; enantiomer 1) | 230 | 5670 | > 10900 |  |  |  |  |  | 
16 | CC1(c2ccccc2)CC(c2cccc(-c3ccc(C(N)=O)cc3C(=O)O)c2)Nc2ccc(C(=N)N)cc21 (single isomer, unassigned; enantiomer 2) | 335 | > 15000 | > 15000 |  |  |  |  |  | 
17 | CC(C)CC(=O)Nc1cc(-c2ccc(C(N)=O)cc2C(=O)O)cc(C2CC(C)(c3ccccc3)c3cc(C(=N)N)ccc3N2)c1 (single isomer, unassigned; enantiomer 2) |  |  |  |  |  | Active | Active |  | Dose-dependent effect

The remaining compounds from weak to strong by Ki [1], led by results:

Row | Ki [1] [nM] | Ki [2] [nM] | Ki [3] [nM] | Ratio Ki [4] | Ratio Ki [5] | inhibition [7] | inhibition [9] | Structure (SMILES) | EC [6] [µM] | inhibition [8]
18 | 48 | 2060 | 867 |  |  |  |  | C[C@]1(c2ccccc2)C[C@@H](c2cccc(-c3ccc(C#N)cc3C(=O)O)c2)Nc2ccc(C(=N)N)cc21 (racemic) |  | 
19 | 37 | > 15000 | 237 |  |  |  |  | C[C@]1(c2ccccc2)C[C@@H](c2cccc(-c3ccc(NS(C)(=O)=O)cc3C(=O)O)c2)Nc2ccc(C(=N)N)cc21 (racemic) |  | 
20 | 26 | 8350 | 16300 |  |  |  |  | C[C@]1(c2ccccc2)C[C@H](c2cccc(-c3ccc(C(N)=O)cc3C(=O)O)c2)Nc2ccc(C(=N)N)cc21 (racemic) |  | 
21 | 25 | 1100 | 95 | 4 | 40 |  |  | CC(C)CNC(=O)c1ccc(-c2ccccc2[C@@H]2C[C@H](c3ccccc3)c3cc(C(=N)N)ccc3N2)c(C(=O)O)c1 (racemic) |  | 
22 | 23 | 24 | 25 |  |  |  |  | CC(C)CNC(=O)c1ccc(-c2cccc([C@@H]3C[C@H](c4ccccc4)c4cc(C(=N)N)ccc4N3)c2)c(C(=O)O)c1 (racemic) |  | 
23 | 15 | 1140 | 451 |  |  |  |  | CNC(=O)Nc1ccc(-c2cccc([C@@H]3C[C@](C)(c4ccccc4)c4cc(C(=N)N)ccc4N3)c2)c(C(=O)O)c1 (racemic) |  | 
24 | 8.5 | 970 | 290 | 30 | 100 |  |  | N=C(N)c1ccc2c(c1)[C@@H](c1ccccc1)C[C@@H](c1ccccc1-c1ccc(C(=O)O)cc1C(=O)O)N2 (racemic) |  | 
25 | 7.6 | 57 | 41 |  |  |  |  | N=C(N)c1ccc2c(c1)[C@@H](c1ccccc1)C[C@@H](c1cc(N)cc(-c3ccccc3C(=O)O)c1)N2 (racemic) |  | 
26 | 3.9 | 130 | 89 | 20 | 30 |  |  | N=C(N)c1ccc2c(c1)[C@@H](c1ccccc1)C[C@@H](c1cccc(-c3ccc(C(=O)O)cc3C(=O)O)c1)N2 (racemic) |  | 
27 | 1.5 | 3000 | 280 |  |  |  |  | C[C@]1(c2ccccc2)C[C@@H](c2cccc(-c3ccc(C(N)=O)cc3C(=O)O)c2)Nc2ccc(C(=N)N)cc21 (racemic) | 8.6 | 
28 | 1 | 1810 | 230 |  |  |  |  | CC(=O)Nc1cc(-c2ccc(C(N)=O)cc2C(=O)O)cc([C@@H]2C[C@](C)(c3ccccc3)c3cc(C(=N)N)ccc3N2)c1 (racemic) | 2.1 | 
29 | 0.72 | 880 | 474 |  |  |  |  | C[C@]1(c2ccccc2)C[C@@H](c2cc(NC(=O)C3CC3)cc(-c3ccc(C(N)=O)cc3C(=O)O)c2)Nc2ccc(C(=N)N)cc21 (racemic) | 4.5 | 
30 | 0.69 | 1480 | 450 |  |  |  |  | CCC(=O)Nc1cc(-c2ccc(C(N)=O)cc2C(=O)O)cc([C@@H]2C[C@](C)(c3ccccc3)c3cc(C(=N)N)ccc3N2)c1 (racemic) | 3.4 | 
31 | 0.64 | 2250 | 56 |  |  |  |  | C[C@]1(c2ccccc2)C[C@@H](c2cc(N)cc(-c3ccc(C(N)=O)cc3C(=O)O)c2)Nc2ccc(C(=N)N)cc21 (racemic) | 1.2 | 
32 | 0.59 | 784 | 1010 |  |  |  |  | CC(C)CC(=O)Nc1cc(-c2ccc(C(N)=O)cc2C(=O)O)cc([C@@H]2C[C@](C)(c3ccccc3)c3cc(C(=N)N)ccc3N2)c1 (racemic) | 6.1 | 
33 | 0.39 | 2330 | 86 |  |  |  |  | CC1(c2ccccc2)CC(c2cccc(-c3ccc(C(N)=O)cc3C(=O)O)c2)Nc2ccc(C(=N)N)cc21 (single isomer, unassigned; (+)) [listing 1 of 2 here] |  | 
34 | 0.3 | 641 | 520 |  |  |  |  | CCCC(=O)Nc1cc(-c2ccc(C(N)=O)cc2C(=O)O)cc([C@@H]2C[C@](C)(c3ccccc3)c3cc(C(=N)N)ccc3N2)c1 (racemic) | 4.1 | 
